Measured values reported in patent US12077503B2, “Substituted cyclic amides and their use as herbicides” (FMC CORPORATION, priority 2015, dated 2024).

Legend:
Format in all cases: in vivo
rice (Oryra sativa) = assay: Test B flooded paddy test; conditions: Oryza sativa, 250 g ai/ha, Flood; 0 to 100 scale where 0 is no effect and 100 is complete control; read-out: Rice plant response rating
In short: (§1)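 2-leaf plants; pots flooded 3 cm over soil; cpd added to paddy water; depth held; greenhouse 13–15 d; visual rating vs controls, 0 = no effect, 100 = complete control.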

[1] = system: ducksalad (Heteranthera limosa); assay: Test B flooded paddy test; conditions: Heteranthera limosa, 250 g ai/ha, Flood; 0 to 100 scale where 0 is no effect and 100 is complete control; read-out: Ducksalad plant response rating
In short: as §1

[2] = system: sedge, umbrella (small-flower umbrella sedge, Cyperus difformis); assay: Test B flooded paddy test; conditions: Cyperus difformis, 250 g ai/ha, Flood; 0 to 100 scale where 0 is no effect and 100 is complete control; read-out: Sedge, Umbrella plant response rating
In short: as §1

[3] = system: barnyardgrass (Echinochloa crus-galli); assay: Test B flooded paddy test; conditions: Echinochloa crus-galli, 250 g ai/ha, Flood; 0 to 100 scale where 0 is no effect and 100 is complete control; read-out: Barnyardgrass plant response rating
In short: as §1

[4] = system: blackgrass (Alopecurus myosuroides); assay: Test A postemergence; conditions: Alopecurus myosuroides, post-emergence, 240 h
In short: (§2)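 Seeds sprayed preemergence with a directed soil spray, or plants at 2 to 10 cm height and one- to two-leaf stage sprayed postemergence, with test chemicals in a non-phytotoxic solvent mixture containing surfactant, in loam soil–sand blend. Injury rated visually against untreated controls after about 10 d in greenhouse, 0 (no effect) to 100 (complete control).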

[5] = system: ryegrass, Italian (Italian ryegrass, Lolium multiflorum); assay: Test A postemergence; conditions: Lolium multiflorum, post-emergence, 240 h
In short: as §2

[6] = system: ragweed (common ragweed, Ambrosia elatior); assay: Test A postemergence; conditions: Ambrosia artemisiifolia, post-emergence, 240 h
In short: as §2

[7] = system: Galium (catchweed bedstraw, Galium aparine); assay: Test A postemergence; conditions: Galium, post-emergence, 240 h
In short: as §2

Kochia (Kochia scoparia) [8] = assay: Test A postemergence; conditions: Bassia scoparia, post-emergence, 240 h
In short: as §2

[9] = system: pigweed (Amaranthus retroflexus); assay: Test A postemergence; conditions: Amaranthus retroflexus, post-emergence, 240 h
In short: as §2

corn (Zea mays) = assay: Test A postemergence; conditions: Zea mays, post-emergence, 240 h
In short: as §2

[10] = system: barnyardgrass (Echinochloa crus-galli); assay: Test A postemergence; conditions: Echinochloa crus-galli, post-emergence, 240 h
In short: as §2

[11] = system: giant foxtail (Setaria faberii); assay: Test A postemergence; conditions: Setaria faberi, post-emergence, 240 h
In short: as §2

[12] = system: wheat (Triticum aestivum); assay: Test A postemergence; conditions: Triticum aestivum, post-emergence, 240 h
In short: as §2

[13] = system: ryegrass, Italian (Italian ryegrass, Lolium multiflorum); assay: Test A preemergence; conditions: Lolium multiflorum, pre-emergence, 240 h, 0 to 100 scale where 0 is no effect and 100 is complete control, read-out: Ryegrass, Italian plant response rating
In short: as §2

[14] = system: ragweed (common ragweed, Ambrosia elatior); assay: Test A preemergence; conditions: Ambrosia artemisiifolia, pre-emergence, 240 h, 0 to 100 scale where 0 is no effect and 100 is complete control, read-out: Ragweed plant response rating
In short: as §2

Kochia (Kochia scoparia) [15] = assay: Test A preemergence; conditions: Bassia scoparia, pre-emergence, 240 h, 0 to 100 scale where 0 is no effect and 100 is complete control, read-out: Kochia plant response rating
In short: as §2

[16] = system: pigweed (Amaranthus retroflexus); assay: Test A preemergence; conditions: Amaranthus retroflexus, pre-emergence, 240 h, 0 to 100 scale where 0 is no effect and 100 is complete control, read-out: Pigweed plant response rating
[17] = system: barnyardgrass (Echinochloa crus-galli); assay: Test A preemergence; conditions: Echinochloa crus-galli, pre-emergence, 240 h, 0 to 100 scale where 0 is no effect and 100 is complete control, read-out: Barnyardgrass plant response rating
In short: as §2

[18] = system: giant foxtail (Setaria faberii); assay: Test A preemergence; conditions: Setaria faberi, pre-emergence, 240 h, 0 to 100 scale where 0 is no effect and 100 is complete control, read-out: Foxtail, Giant plant response rating
In short: as §2

[19] = 125 g ai/ha, preemergence, approx. 10 d

CN1C[C@H](c2csc3c2CCCC3)[C@@H](C(=O)Nc2ccc(F)c(F)c2F)C1=O [Compound 1079]
pest or weed control at 250 g/ha (rice (Oryra sativa)): 20%
pest or weed control at 250 g/ha [1]: 30%
pest or weed control at 250 g/ha [2]: 0%
pest or weed control at 250 g/ha [3]: 60%
pest or weed control at 125 g/ha ([4]; 125 g ai/ha, postemergence, visual injury on 0 to 100 scale (0 no effect, 100 complete control), approx. 10 d, read-out: Blackgrass plant response rating): 0%
pest or weed control at 31 g/ha ([4]; Postemergence, 31 g ai/ha, visual injury after approx. 10 d, 0 to 100 scale, 0 no effect, 100 complete control, read-out: Plant response rating, Blackgrass): 0%
pest or weed control at 125 g/ha ([5]; 125 g ai/ha, postemergence, visual injury on 0 to 100 scale (0 no effect, 100 complete control), approx. 10 d, read-out: Ryegrass, Italian plant response rating): 0%
pest or weed control at 31 g/ha ([5]; Postemergence, 31 g ai/ha, visual injury after approx. 10 d, 0 to 100 scale, 0 no effect, 100 complete control, read-out: Plant response rating, Ryegrass, Italian): 0%
pest or weed control at 125 g/ha ([6]; 125 g ai/ha, postemergence, visual injury on 0 to 100 scale (0 no effect, 100 complete control), approx. 10 d, read-out: Ragweed plant response rating): 0%
pest or weed control at 31 g/ha ([6]; Postemergence, 31 g ai/ha, visual injury after approx. 10 d, 0 to 100 scale, 0 no effect, 100 complete control, read-out: Plant response rating, Ragweed): 0%
pest or weed control at 125 g/ha ([7]; 125 g ai/ha, postemergence, visual injury on 0 to 100 scale (0 no effect, 100 complete control), approx. 10 d, read-out: Galium plant response rating): 0%
pest or weed control at 31 g/ha ([7]; Postemergence, 31 g ai/ha, visual injury after approx. 10 d, 0 to 100 scale, 0 no effect, 100 complete control, read-out: Plant response rating, Galium): 0%
pest or weed control at 125 g/ha (Kochia (Kochia scoparia) [8]; 125 g ai/ha, postemergence, visual injury on 0 to 100 scale (0 no effect, 100 complete control), approx. 10 d, read-out: Kochia plant response rating): 20%
pest or weed control at 31 g/ha (Kochia (Kochia scoparia) [8]; Postemergence, 31 g ai/ha, visual injury after approx. 10 d, 0 to 100 scale, 0 no effect, 100 complete control, read-out: Plant response rating, Kochia): 0%
pest or weed control at 125 g/ha ([9]; 125 g ai/ha, postemergence, visual injury on 0 to 100 scale (0 no effect, 100 complete control), approx. 10 d, read-out: Pigweed plant response rating): 0%
pest or weed control at 31 g/ha ([9]; Postemergence, 31 g ai/ha, visual injury after approx. 10 d, 0 to 100 scale, 0 no effect, 100 complete control, read-out: Plant response rating, Pigweed): 0%
plant injury at 125 g/ha (corn (Zea mays); 125 g ai/ha, postemergence, visual injury on 0 to 100 scale (0 no effect, 100 complete control), approx. 10 d, read-out: Corn plant response rating): 0%
Corn plant response rating (crop injury, 0 = no effect, 100 = complete kill) at 31 g/ha (corn (Zea mays); Postemergence, 31 g ai/ha, visual injury after approx. 10 d, 0 to 100 scale, 0 no effect, 100 complete control): 0%
pest or weed control at 125 g/ha ([10]; 125 g ai/ha, postemergence, visual injury on 0 to 100 scale (0 no effect, 100 complete control), approx. 10 d, read-out: Barnyardgrass plant response rating): 90%
pest or weed control at 31 g/ha ([10]; Postemergence, 31 g ai/ha, visual injury after approx. 10 d, 0 to 100 scale, 0 no effect, 100 complete control, read-out: Plant response rating, Barnyardgrass): 20%
pest or weed control at 125 g/ha ([11]; 125 g ai/ha, postemergence, visual injury on 0 to 100 scale (0 no effect, 100 complete control), approx. 10 d, read-out: Foxtail, Giant plant response rating): 20%
pest or weed control at 31 g/ha ([11]; Postemergence, 31 g ai/ha, visual injury after approx. 10 d, 0 to 100 scale, 0 no effect, 100 complete control, read-out: Plant response rating, Foxtail, Giant): 0%
plant injury at 125 g/ha ([12]; 125 g ai/ha, postemergence, visual injury on 0 to 100 scale (0 no effect, 100 complete control), approx. 10 d, read-out: Wheat plant response rating): 30%
plant injury at 31 g/ha ([12]; Postemergence, 31 g ai/ha, visual injury after approx. 10 d, 0 to 100 scale, 0 no effect, 100 complete control, read-out: Plant response rating, Wheat): 0%
pest or weed control at 31 g/ha ([13]; 31 g ai/ha, Preemergence): 0%
pest or weed control at 125 g/ha [13, 19]: 0%
pest or weed control at 31 g/ha ([14]; 31 g ai/ha, Preemergence): 0%
pest or weed control at 125 g/ha [14, 19]: 0%
pest or weed control at 31 g/ha (Kochia (Kochia scoparia) [15]; 31 g ai/ha, Preemergence): 0%
pest or weed control at 125 g/ha (Kochia (Kochia scoparia) [15]; [19]): 0%
pest or weed control at 31 g/ha ([16]; 31 g ai/ha, Preemergence): 0%
pest or weed control at 125 g/ha [16, 19]: 0%
pest or weed control at 31 g/ha ([17]; 31 g ai/ha, Preemergence): 0%
pest or weed control at 125 g/ha [17, 19]: 80%
pest or weed control at 31 g/ha ([18]; 31 g ai/ha, Preemergence): 20%
pest or weed control at 125 g/ha [18, 19]: 100%
